According to PubChem BioAssay AID330 (DTP/NCI, 2004):
“And” between values parts separate entries of the source, which are not always exact repeats. Equal values may be shown once. Toxic doses and inconclusive results are not listed. How the source made its calls: active means survival T/C of 150% or more; inactive means T/C below 125% in these data.

System: P388 leukemia ip, CD2F1 mice, survival T/C
Assay: NCI In Vivo Anticancer Drug Screen. Data for tumor model P388 Leukemia (intraperitoneal) in CD2F1 (CDF1) mice
Settings: endpoint: median survival time, higher = longer survival
In short: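 Mice carrying the transplanted tumor received test compound or vehicle. Survival was recorded in each group, and the value is the treated-group measurement divided by that of the vehicle-treated control group.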

[1] = dose: 50.0 mg/kg/injection, schedule: Q01DX009 (ip), vehicle: saline with Tween-80
[2] = dose: 100.0 mg/kg/injection, schedule: Q01DX009 (ip), vehicle: saline with Tween-80
[3] = dose: 200.0 mg/kg/injection, schedule: Q01DX009 (ip), vehicle: saline with Tween-80
[4] = dose: 60.0 mg/kg/injection, schedule: Q01DX005 (ip), vehicle: saline with Tween-80
[5] = dose: 120.0 mg/kg/injection, schedule: Q01DX005 (ip), vehicle: saline with Tween-80
[6] = dose: 240.0 mg/kg/injection, schedule: Q01DX005 (ip), vehicle: saline with Tween-80
[7] = dose: 50.0 mg/kg/injection, schedule: Q01DX005 (ip), vehicle: Klucel + Tween-80
[8] = dose: 100.0 mg/kg/injection, schedule: Q01DX005 (ip), vehicle: Klucel + Tween-80
[9] = dose: 200.0 mg/kg/injection, schedule: Q01DX005 (ip), vehicle: Klucel + Tween-80
[10] = dose: 60.0 mg/kg/injection, schedule: Q01DX005 (ip), vehicle: Klucel (hydroxypropylcellulose) (HPC)
[11] = dose: 120.0 mg/kg/injection, schedule: Q01DX005 (ip), vehicle: Klucel (hydroxypropylcellulose) (HPC)
[12] = dose: 240.0 mg/kg/injection, schedule: Q01DX005 (ip), vehicle: Klucel (hydroxypropylcellulose) (HPC)

Measured: T/C

O=C1CC[C@H]2[C@@H]3N1c1ccccc1[C@@]31CCN3C/C(=C/CBr)[C@@H]2C[C@H]31
inactive: dose: 7.5 mg/kg/injection, schedule: Q01DX005 (ip), vehicle: Klucel (hydroxypropylcellulose) (HPC) 100 % of control | dose: 15.0 mg/kg/injection, schedule: Q01DX005 (ip), vehicle: Klucel (hydroxypropylcellulose) (HPC) 102 % of control

C=C1C2CCC3(C)C(c4ccoc4)OC(=O)CC13OC1CC(=O)C(C)(C)C(CC(=O)OC)C12C (stereo not given)
inactive: dose: 25.0 mg/kg/injection, schedule: Q01DX009 (ip), vehicle: saline with Tween-80 99 % of control | [1] 99 % of control | [2] 99 % of control | [3] 98 % of control

O=C(c1ccc(-c2ccccc2)cc1)C1(Br)CCCCC1
inactive: [2] 100 % of control | [3] 100 % of control | dose: 400.0 mg/kg/injection, schedule: Q01DX009 (ip), vehicle: saline with Tween-80 100 % of control

CCCCCCCCCCCCCCCC(=O)NCCCCC(N)C(=O)O (stereo not given)
inactive: dose: 50.0 mg/kg/injection, schedule: Q01DX009 (ip), vehicle: suspension in saline 94 % of control | dose: 100.0 mg/kg/injection, schedule: Q01DX009 (ip), vehicle: suspension in saline 98 % of control | dose: 200.0 mg/kg/injection, schedule: Q01DX009 (ip), vehicle: suspension in saline 96 % of control

C=CC1(C)OC(=NC(C)(C)CO)c2cc(C)c(OC)cc21 (stereo not given)
inactive: dose: 50.0 mg/kg/injection, schedule: Q01DX005 (ip), vehicle: saline with Tween-80 98 % of control | dose: 100.0 mg/kg/injection, schedule: Q01DX005 (ip), vehicle: saline with Tween-80 97 % of control

CC1(C2=CCCCC2)CCC(=O)NC1=O (stereo not given)
inactive: [4] 100 % of control | [5] 98 % of control | [6] 98 % of control

CC[As](CC)SCC1OC(OC(C)=O)C(OC(C)=O)C(OC(C)=O)C1OC(C)=O (stereo not given)
inactive: dose: 50.0 mg/kg/injection, schedule: Q01DX009 (ip), vehicle: saline + alcohol 99 % of control | dose: 50.0 mg/kg/injection, schedule: Q01DX009 (ip), vehicle: saline 110 % of control | dose: 100.0 mg/kg/injection, schedule: Q01DX009 (ip), vehicle: saline + alcohol 100 % of control | dose: 100.0 mg/kg/injection, schedule: Q01DX009 (ip), vehicle: saline 113 % of control | dose: 200.0 mg/kg/injection, schedule: Q01DX009 (ip), vehicle: saline + alcohol 109 % of control

O=c1[nH][nH]c2c(N=Cc3ccccc3O)ccc(F)c12
inactive: [7] 108 % of control | [8] 102 % of control | [9] 108 % of control

CCc1ncc(C(C)(O)c2ccc(C)cc2)n1Cc1ccccc1 (stereo not given)
inactive: [10] 90 % of control | [11] 86 % of control | [12] 86 % of control

CSC(/C=C1\C=CC=CN1Cc1ccccc1)=NC#N
inactive: dose: 25.0 mg/kg/injection, schedule: Q04DX002 (ip), vehicle: saline with Tween-80 100 % of control | dose: 50.0 mg/kg/injection, schedule: Q04DX002 (ip), vehicle: saline with Tween-80 92 % of control | dose: 100.0 mg/kg/injection, schedule: Q04DX002 (ip), vehicle: saline with Tween-80 99 % of control

NC(CS)C(=O)O (stereo not given) (tested in a mixture with another compound)
inactive: dose: 3.12 mg/kg/injection, schedule: Q01DX009 (ip), vehicle: suspension in saline 90 % of control | dose: 6.25 mg/kg/injection, schedule: Q01DX009 (ip), vehicle: suspension in saline 107 % of control | dose: 12.5 mg/kg/injection, schedule: Q01DX009 (ip), vehicle: suspension in saline 110 % of control | dose: 25.0 mg/kg/injection, schedule: Q01DX009 (ip), vehicle: suspension in saline 110 % of control

O=C(O)C1OC(N(O)c2ccc(Oc3ccc(Cl)cc3)cc2)C(O)C(O)C1O (stereo not given)
inactive: [4] 106 % of control | [5] 100 % of control | [6] 100 % of control

CC(=O)OC1CC2C(C)(C)C(=O)C3OC3C2(C)C2CCC3(C)C(c4ccoc4)C(=O)C4OC43C12C (stereo not given)
inactive: dose: 0.38 mg/kg/injection, schedule: Q01DX005 (ip), vehicle: Klucel (hydroxypropylcellulose) (HPC) 100 % of control | dose: 0.75 mg/kg/injection, schedule: Q01DX005 (ip), vehicle: Klucel (hydroxypropylcellulose) (HPC) 100 % of control | dose: 1.5 mg/kg/injection, schedule: Q01DX005 (ip), vehicle: Klucel (hydroxypropylcellulose) (HPC) 100 % of control | dose: 3.0 mg/kg/injection, schedule: Q01DX005 (ip), vehicle: Klucel (hydroxypropylcellulose) (HPC) 100 % of control | dose: 6.0 mg/kg/injection, schedule: Q01DX005 (ip), vehicle: Klucel (hydroxypropylcellulose) (HPC) 106 % of control

CN(C)C1CS(=O)(=O)OC2=C1CCc1sccc12 (stereo not given)
inactive: [10] 102 % of control | [11] 100 % of control | [12] 97 % of control

CCCCN(C(=O)N(CC)CC)[Si](C)(C)C
inactive: dose: 50.0 mg/kg/injection, schedule: Q01DX009 (ip), vehicle: Klucel (hydroxypropylcellulose) (HPC) 107 % of control | dose: 100.0 mg/kg/injection, schedule: Q01DX009 (ip), vehicle: Klucel (hydroxypropylcellulose) (HPC) 100 % of control | dose: 200.0 mg/kg/injection, schedule: Q01DX009 (ip), vehicle: Klucel (hydroxypropylcellulose) (HPC) 107 % of control

CNC(=O)NCCCCCCNC(=O)NC
inactive: dose: 50.0 mg/kg/injection, schedule: Q01DX005 (ip), vehicle: Klucel (hydroxypropylcellulose) (HPC) 99 % of control and 95 % of control | dose: 100.0 mg/kg/injection, schedule: Q01DX005 (ip), vehicle: Klucel (hydroxypropylcellulose) (HPC) 87 % of control and 95 % of control | dose: 200.0 mg/kg/injection, schedule: Q01DX005 (ip), vehicle: Klucel (hydroxypropylcellulose) (HPC) 89 % of control

CC(C(=O)c1ccc(Cl)cc1)C1=NC2NN(c3ccccc3)C(=O)C2=C1C(C)C(=O)c1ccc(Cl)cc1 (stereo not given)
inactive: [4] 99 % of control | [5] 101 % of control | [6] 100 % of control

O=C1C(N=Nc2cc(Cl)ccc2Cl)C(O)N(c2ccc(Cl)cc2)C(=S)N1c1cccc(Cl)c1Cl (stereo not given)
inactive: dose: 100.0 mg/kg/injection, schedule: Q04DX002 (ip), vehicle: Klucel (hydroxypropylcellulose) (HPC) 100 % of control | dose: 200.0 mg/kg/injection, schedule: Q04DX002 (ip), vehicle: Klucel (hydroxypropylcellulose) (HPC) 101 % of control | dose: 400.0 mg/kg/injection, schedule: Q04DX002 (ip), vehicle: Klucel (hydroxypropylcellulose) (HPC) 99 % of control

COC(=O)N1CC2[C@H](O)[C@H](O)C1ON2c1ccccc1 (stereo not given in full)
inactive: [10] 101 % of control | [11] 94 % of control | [12] 93 % of control

CSC#CC(Sc1c(Cl)c(Cl)c(Cl)c(Cl)c1Cl)=C(Sc1c(Cl)c(Cl)c(Cl)c(Cl)c1Cl)Sc1c(Cl)c(Cl)c(Cl)c(Cl)c1Cl
inactive: [1] 99 % of control | [2] 93 % of control | [3] 92 % of control

Clc1ccc(-c2cc3cc4c(cc3[nH]2)Oc2ccccc2O4)cc1
inactive: dose: 17.5 mg/kg/injection, schedule: Q01DX009 (ip), vehicle: Klucel (hydroxypropylcellulose) (HPC) 107 % of control | dose: 35.0 mg/kg/injection, schedule: Q01DX009 (ip), vehicle: Klucel (hydroxypropylcellulose) (HPC) 103 % of control | dose: 70.0 mg/kg/injection, schedule: Q01DX009 (ip), vehicle: Klucel (hydroxypropylcellulose) (HPC) 103 % of control

c1ccc2c(c1)[nH]c1nc3ccncc3nc12
inactive: [1] 90 % of control | [2] 90 % of control

Cc1cc(C)[n+]2n1C(=O)C(c1ccccc1)=C2[O-]
inactive: [7] 101 % of control | [8] 102 % of control | [9] 101 % of control

CC(=O)Nc1ccc(C(=O)N/N=C/c2ccc(O)cc2)cc1
inactive: dose: 50.0 mg/kg/injection, schedule: Q01DX005 (ip), vehicle: saline 99 % of control | dose: 100.0 mg/kg/injection, schedule: Q01DX005 (ip), vehicle: saline 102 % of control | dose: 200.0 mg/kg/injection, schedule: Q01DX005 (ip), vehicle: saline 100 % of control
